tested on: N-linked glycans of CHO cells; assay: N-glycan profiling of treated CHO cells by normal phase HPLC (PNGaseF release, 2AB label); format: cell-based, Chinese Hamster; settings: CHO cells treated with compound, doses in uM
Protocol: N-linked glycans were purified from CHO cell cultures and different N-linked glycan structural peaks were separated by normal phase HPLC. For the analyses, cultured CHO cells were treated with and without the test compounds as described above and then harvested for N-glycan profiling. The spent medium was decanted and the cells were rinsed 3 times with PBS and detached with 5 mM EDTA/PBS. N-glycans were released from cells using PNGaseF (Prozyme, Cat# GKE-5006) as described by the manufacture. Released glycans were labeled with […] (2AB) (Sigma, Cat# A89804) as described by the manufacture. Non-incorporated 2AB was removed using a Discovery DPA-6S column. Briefly, the column was pre-equilibrated 2× with 1 ml 97% ACN. Samples were loaded by adding 1 ml 97% acetonitrile (ACN) to the reaction mix. The column was washed 4× with 1 ml 97% CAN. 2AB-labeled N-glycans were then eluted 2× with 0.6 ml water, dried in a vacuum centrifuge, resuspended and then analyzed by normal phase HPLC(NP-HPLC). Analogous experiments were run with Castanospermine for comparison. The results are illustrated in FIGS. 23-30. Purified 2AB-N-glycans were separated (NP-HPLC) on a 4.6×250 mm TSK Gel-Amide-80 column (Tosoh Bioscience). A gradient was run from 70% A to 50% A over 40 min at a flow rate of 1.2 ml/min (Solvent A: Acetonitrile, Solvent B: 50 mM ammonium formate pH4.4). Glucose units were determined based on 2AB-labeled glucose oligomer ladder (Prozyme). 2AB-labeled N-glycan standards (Prozyme) were run and assigned glucose units.

Row | Structure (SMILES) | specific N-linked glycan peaks of the HPLC profile (peak areas as % of the untreated Cntr peak area)
1 | COc1ccc(CN/C=C2\C(=O)N(c3nc4ccccc4s3)N=C2c2ccccc2)cc1 [compound 11] | increases and decreases of specific peaks
2 | Cc1ccc(NC(=O)c2c(NC(=O)c3cccnc3)sc3c2CCC3)cc1 [compound 10, N-(3-(p-tolylcarbamoyl)-5,6-dihydro-4H-cyclopenta[b]thiophen-2-yl)nicotinamide] | increases and decreases of specific peaks
3 | CCOc1cc(/C=C(\C#N)c2n[nH]c(N)c2C#N)ccc1O [compound 12, (Z)-5-amino-3-(1-cyano-2-(3-ethoxy-4-hydroxyphenyl)vinyl)-1H-pyrazole-4-carbonitrile] | increases and decreases of specific peaks
4 | O[C@H]1[C@H](O)[C@@H](O)CN2CC[C@H](O)[C@H]12 [Castanospermine, reference compound] | N-glycan Profile Changes
